In patent US20230310409A1, “TREATING RHEUMATOID ARTHRITIS” (BRISTOL-MYERS SQUIBB COMPANY, priority 2020, published 2023):
Values belong to the molecule of their own block, whether it stands above or below them.

Assays:
Format in all cases: in vivo, mice (male DBA/1)
anti-collagen antibodies = test: Serum anti-collagen antibody titer at termination in collagen-induced arthritis model; conditions: Compound (I) alone, 0.25 and 2.5 mg/kg
Description: (§1) Male DBA/1 mice (9-11 weeks of age, Harlan) were primed with bovine type II collagen (Chondrex #20021) in adjuvant (Sigma adjuvant system, Sigma Aldrich #S6322) at the base of tail on day 1 and on day 21. Mice were randomized into 7 groups based on body weight and assigned as either vehicle (10% ethanol; 45% PEG 300; 5% pluronic F-68; 40% 20 mM citrate buffer); Compound (I) at 0.25 and 2.5 mg/kg or mEnbrel (mouse Enbrel) at 10 mg/kg or combination of Compound (I) with mEnbrel at 0.25+10 mg/kg and 2.5+10 mg/kg or mCTLA4 (mouse CTLA4-Ig) (as a reference compound) at 3 mg/kg dose level. […] Disease activity was monitored and scored twice per week using standard criteria (0: normal; 1: mild, but definite redness and swelling of the ankle or wrist, or apparent redness and swelling limited to individual digits regardless of number of affected digits; 2: moderate redness and swelling of ankle or wrist; 3: severe redness and swelling of the entire paw including digits; 4: maximally inflamed limb with involvement of multiple joints). […]
FIG. 2: Inhibition of circulating markers by Compound (I) alone and in combination with mEnbrel. […] At the time of termination (A) serum anti-collagen antibody titer and (B) plasma IL-6 was assessed. […]

IL-6 = test: Plasma IL-6 at termination in collagen-induced arthritis model; conditions: Compound (I) alone, 0.25 and 2.5 mg/kg
Description: Male DBA/1 mice (9-11 weeks of age, Harlan) were primed with bovine type II collagen (Chondrex #20021) in adjuvant (Sigma adjuvant system, Sigma Aldrich #S6322) at the base of tail on day 1 and on day 21. Mice were randomized into 7 groups based on body weight and assigned as either vehicle (10% ethanol; 45% PEG 300; 5% pluronic F-68; 40% 20 mM citrate buffer); Compound (I) at 0.25 and 2.5 mg/kg or mEnbrel (mouse Enbrel) at 10 mg/kg or combination of Compound (I) with mEnbrel at 0.25+10 mg/kg and 2.5+10 mg/kg or mCTLA4 (mouse CTLA4-Ig) (as a reference compound) at 3 mg/kg dose level. Compound (I) was administered from day 21 by oral gavage once daily whereas mEnbrel and mCTLA4 were administered from day of primary immunization, twice per week by intraperitoneal injection. Disease activity was monitored and scored twice per week using standard criteria (0: normal; 1: mild, but definite redness and swelling of the ankle or wrist, or apparent redness and swelling limited to individual digits regardless of number of affected digits; 2: moderate redness and swelling of ankle or wrist; 3: severe redness and swelling of the entire paw including digits; 4: maximally inflamed limb with involvement of multiple joints). […] At the time of termination (A) serum anti-collagen antibody titer and (B) plasma IL-6 was assessed. […]

[1] = test system: collagen-induced arthritis model; test: Collagen-induced arthritis in mice, clinical score (arthritic index); conditions: for disease score: mouse CIA, Compound (I) 0.25 mg/kg oral once daily from day 21, mEnbrel 10 mg/kg i.p. twice per week from primary immunization, combination 0.25+10 mg/kg
Description: Male DBA/1 mice (9-11 weeks of age, Harlan) were primed with bovine type II collagen (Chondrex #20021) in adjuvant (Sigma adjuvant system, Sigma Aldrich #S6322) at the base of tail on day 1 and on day 21. Mice were randomized into 7 groups based on body weight and assigned as either vehicle (10% ethanol; 45% PEG 300; 5% pluronic F-68; 40% 20 mM citrate buffer); Compound (I) at 0.25 and 2.5 mg/kg or mEnbrel (mouse Enbrel) at 10 mg/kg or combination of Compound (I) with mEnbrel at 0.25+10 mg/kg and 2.5+10 mg/kg or mCTLA4 (mouse CTLA4-Ig) (as a reference compound) at 3 mg/kg dose level. Compound (I) was administered from day 21 by oral gavage once daily whereas mEnbrel and mCTLA4 were administered from day of primary immunization, twice per week by intraperitoneal injection. Disease activity was monitored and scored twice per week using standard criteria (0: normal; 1: mild, but definite redness and swelling of the ankle or wrist, or apparent redness and swelling limited to individual digits regardless of number of affected digits; 2: moderate redness and swelling of ankle or wrist; 3: severe redness and swelling of the entire paw including digits; 4: maximally inflamed limb with involvement of multiple joints).
Compound (I) was tested in the semi-therapeutic mode of treatment in mouse collagen-induced arthritis model. Dosing initiated after the antigen boost (from day 21) and continued up to day 45.
Compound (I) was tested in combination with the TNFα blocking agent mEnbrel in the collagen-induced arthritis model where dosing of Compound (I) was initiated after the antigen boost whereas mEnbrel was administered from the day of primary immunization.
Mice were treated with respective treatment. During the entire study course (A) and at the time of termination (B) disease was assessed by measuring the clinical score (arthritic index). Data are from one experiment with 10 mice per group. ***P<0.0001 versus vehicle by one-way ANOVA with a Dunnett test.

[2] = Pharmacokinetics of Compound (I) in CIA model, whole blood (DBS) drug concentration by LCMS
Description: as §1
FIG. 3: Pharmacokinetic analysis of Compound (I) in CIA model of arthritis. […] Following 19 days of dosing, whole blood was drawn at different time points and DBS drug concentrations were measured by LCMS. […]

whole blood drug concentration ([2]; 0.25 and 2.5 mg/kg oral, after 19 days of dosing, 1-24 h post dose): dose dependent increase
whole blood concentration of Compound (I) in the presence of mEnbrel ([2]; co-treatment with mEnbrel 10 mg/kg): not altered
Molecule: Cc1c(-c2[nH]c3ccc(C4CCN(CC(N)=O)CC4)cc3c2C(C)C)cn2ncnc2c1C [Compound (I), 2-(4-(2-(7,8-dimethyl-[1,2,4]triazolo[1,5-a]pyridin-6-yl)-3-isopropyl-1H-indol-5-yl)piperidin-1-yl)acetamide]
serum anti-collagen-antibody titer (anti-collagen antibodies): dose dependent reduction
plasma IL-6 (IL-6): dose dependent reduction
arthritic score at the termination of the study ([1]; Compound (I) alone, 0.25 and 2.5 mg/kg oral once daily from day 21): Significant dose dependent suppression
disease score [1]: 82 % of control
inhibition of clinical signs of disease, earliest time ([1]; semi-therapeutic mode, dosing from day 21 up to day 45, 0.25 and 2.5 mg/kg oral once daily): 7 days post dosing

B1: mEnbrel: fully mouse version of Enbrel: mouse TNFR1B extracellular domain (Val-23 to Gly-258) fused to mouse IgG2A, TNFα blocking agent (protein, listed as Mus musculus)
chain: MRAWIFFLLCLAGRALAVPAQVVLTPYKPEPGYECQISQEYYDRKAQMCCAKCPPGQYVKHFCNKTSDTVCADCEASMYTQVWNQFRTCLSCSSSCTTDQVEIRACTKQQNRVCACEAGRYCALKTHSGSCRQCMRLSKCGPGFGVASSRAPNGNVLCKACAPGTFSDTTSSTDVCRPHRICSILAIPGNASTDAVCAPESPTLSAIPRTLYVSQPEPTRSQPLDQEPGPSQTPSILTSLGSTPIIEQSTKGGEPRGPTIKPCPPCKCPAPNLLGGPSVFIFPPKIKDVLMISLSPIVTCVVVDVSEDDPDVQISWFVNNVEVHTAQTQTHREDYNSTLRVVSALPIQHQDWMSGKEFKCKVNNKDLPAPIERTISKPKGSVRAPQVYVLPPPEEEMTKKQVTLTCMVTDFMPEDIYVEWTNNGKTELNYKNTEPVLDSDGSYFMYSKLRVEKKNWVERNSYSCSVVHEGLHNHHTTKSFSRTPGK
modifications: SIGNAL (1)..(17) Osteonectin signal sequence; (18)..(253) Mouse TNFR1B (V23 - G258); (254)..(486) Mouse IgG2a
disease score [1]: 56 % of control
